The source of these data is PMC5725799, “Comparative binding properties of the tau PET tracers THK5117, THK5351, PBB3, and T807 in postmortem Alzheimer brains” (Alzheimer's Research & Therapy, 2017).

Structures are written as SMILES. Values joined by “and” are separate entries in the source; they are usually repeats but may differ in a detail not shown here. Equal entries are not always repeated.

In test [1] the target is T1, monoamine oxidase B (MAO-B) (Homo sapiens, UniProt P27338).
T1 construct: postmortem brain homogenates from the hippocampus and putamen (0.2 mg/ml tissue) of two patients with AD; tissue Netherlands Brain Bank; host or cells: postmortem human AD hippocampus and putamen homogenate
T1 sequence (P27338 1-520): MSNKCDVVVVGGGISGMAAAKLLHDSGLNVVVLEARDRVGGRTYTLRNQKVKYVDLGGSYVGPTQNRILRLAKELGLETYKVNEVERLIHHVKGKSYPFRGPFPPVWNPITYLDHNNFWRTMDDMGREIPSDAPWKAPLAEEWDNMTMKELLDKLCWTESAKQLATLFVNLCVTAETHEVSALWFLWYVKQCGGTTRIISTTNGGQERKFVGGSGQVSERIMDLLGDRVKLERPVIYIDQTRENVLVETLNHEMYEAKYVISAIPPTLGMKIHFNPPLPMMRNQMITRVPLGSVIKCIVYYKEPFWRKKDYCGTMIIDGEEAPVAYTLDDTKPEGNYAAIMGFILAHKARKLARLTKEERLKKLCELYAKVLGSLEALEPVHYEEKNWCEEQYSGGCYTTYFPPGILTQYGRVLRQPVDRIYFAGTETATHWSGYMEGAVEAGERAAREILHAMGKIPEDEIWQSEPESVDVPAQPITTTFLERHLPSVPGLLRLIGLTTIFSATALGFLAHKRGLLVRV
As to the kind of experiment: Competition binding with ^3H-deprenyl in hippocampus and putamen brain homogenates (off-target binding). The conditions noted are these: vs ^3H-deprenyl 10 nM, two AD cases. Here is the method:
Competition binding studies using postmortem brain homogenates from the hippocampus and putamen (0.2 mg/ml tissue) of two patients with AD were performed using ^3H-deprenyl (10 nM in Na-K phosphate buffer, pH 7.4) and increasing concentrations of unlabeled THK5117 (10^−14 to 10^−5 M) and T807 (10^−14 to 10^−5 M) to determine the off-target binding of the tau PET tracers. After 2-h incubation at room temperature, the binding assay was terminated by filtration through glass fiber filters presoaked for at least 3 h in 0.3% polyethylenimine. To do so, the filters were rinsed and filtered three times using cold binding buffer, and then the radiation on the filter was quantified using a Beckman Coulter scintillation counter. The data from all the binding studies were analyzed using Prism version 7.0 software.

The test system of test [2] is tau. Description: ^3H-THK5351 competition autoradiography with unlabeled THK5351, T807 and deprenyl. The test is classed as binding, human. The conditions noted are these: cortical areas. Here is the method: Six adjacent sections from AD1 (see Table 1) were used for competition autoradiography of unlabeled THK5351, T807, and deprenyl. After reaching room temperature, the frozen sections were preincubated for 10 minutes with PBS (pH 7.4) and then incubated for 1 h at room temperature with ^3H-THK5351 (1.5 nM) in addition to 10 μM unlabeled THK5351; 10 μM unlabeled deprenyl; 10 μM unlabeled T807; 10 μM unlabeled THK5351 and 10 μM unlabeled deprenyl; 10 μM unlabeled T807 and 10 μM unlabeled deprenyl. The sections were rinsed three times in cold buffer for 5 minutes, followed by a quick dip in cold distilled water. Nonspecific binding was determined using 10 μM unlabeled THK5351 or 10 μM unlabeled THK5117. […]
(§1) For all the autoradiography studies, the regions of interest were drawn manually on the autoradiogram using multigauge software and were used for the semiquantitative analyses. Photostimulated luminescence per square millimeter (PSL/mm^2) was transformed to picomoles per cubic millimeter using a transformation factor that took into account the resolution of the image, the pixel value for the concentration of ligand, and the thickness of the sections: (PSL/mm^2 value)/([pixel value per pmol] × [(resolution/1000)^2] × [cryosection thickness]/1000).

Test [3] addresses tau (Homo sapiens, UniProt P10636). Description: Competition binding assay with ^3H-THK5351 in postmortem hippocampus brain homogenates. The conditions noted are these: vs ^3H-THK5351 1.5 nM, AD hippocampus homogenate; read-out: Ki2 (high-affinity site). How it is done:
(§2) Postmortem brain tissues from three patients with AD and three healthy control subjects were used for the in vitro binding assays. All the brain tissue, which came from the Netherlands Brain Bank, had been homogenized in PBS containing a protease/phosphatase inhibitor (see Table 1).
After 2-h incubation at room temperature, the binding assay was terminated by filtration through glass fiber filters presoaked for at least 3 h in 0.3% polyethylenimine. To do so, the filters were rinsed and filtered three times using cold binding buffer, and then the radiation on the filter was quantified using a Beckman Coulter scintillation counter. The data for the regional binding distribution studies were analyzed using Prism version 7.0 software for Mac (GraphPad Software Inc., La Jolla, CA, USA), and two-way analysis of variance with multiple comparisons was performed.

Another test relates to MAO-B. More on the design: method as in PMID 28374768. The conditions noted are these: cited from earlier work.
In test [4] the test system is tau. As to the kind of experiment: ^3H-THK5117 and ^3H-THK5351 autoradiography of large frozen postmortem brain sections, total binding. More on the design: species or system human. The settings on record: 3 nM tracer. How it is done: Postmortem frozen left brain hemispheres from three patients with AD were obtained from the Neuropathology of Dementia Laboratory (Indiana University School of Medicine, Indianapolis, IN, USA) and used for the autoradiography experiment. The frozen sections were allowed to reach room temperature, preincubated for 10 minutes with PBS + 0.1% BSA (pH 7.4), and then incubated for 1 h at room temperature with ^3H-THK5351 (3 nM) or ^3H-THK5117 (3 nM). The sections were rinsed three times in cold buffer for 5 minutes, followed by a quick dip in cold distilled water. Nonspecific binding was determined using 10 μM unlabeled THK5351 or 10 μM unlabeled THK5117. […]
as §1

Test [5] relates to tau. Description: Regional binding distribution of ^3H-THK5117 and ^3H-THK5351 in brain homogenate. More on the design: species or system human. The settings on record: temporal cortex homogenate, ^3H-THK5117 3 nM vs ^3H-THK5351 1.5 nM, p < 0.0001. How it is done: as §2
The regional binding distribution comparison between ^3H-THK5351 and ^3H-THK5117 was carried out in postmortem frontal and temporal cortical and hippocampal tissue from the brains of three patients with AD and three control subjects. The protocol was similar for ^3H-THK5351 (1.5 nM) and ^3H-THK5117 (3 nM): 0.1 mg of tissue in PBS + 0.1% bovine serum albumin (BSA) to a final volume of 500 μl, followed by incubation for 2 h at room temperature. The nonspecific binding was determined using 1 μM unlabeled THK5351 or unlabeled THK5117. After 2-h incubation at room temperature, the competition binding assay was stopped using filtration through glass fiber filters, and the radiation was then quantified using the scintillation counter.

Chain of tau (Homo sapiens, UniProt P10636) (P10636 623-695 limits assumed): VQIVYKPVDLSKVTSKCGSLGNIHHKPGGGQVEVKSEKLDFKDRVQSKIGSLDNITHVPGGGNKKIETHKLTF

Consider `Fc1ccc(-c2ccc3c(c2)[nH]c2ccncc23)cn1` [T807], for which the Ki in test [1] (hippocampus homogenate) is 227 nM and > 200 nM; in test [1] (putamen homogenate) it was 135 nM and ~150 nM; on tau [3], 78 nM. Further, the “^3H-THK5351 binding displaced” value in the test with tau [2] was 70–80%.
With `CNc1ccc(-c2ccc3cc(OCC(O)CF)ccc3n2)cc1` (centres unmarked) [THK5117], the Ki is 286 nM and > 200 nM in test [1] (hippocampus homogenate); 148 nM and ~150 nM in test [1] (putamen homogenate); 20 nM at tau [3]. Also, the “affinity between MAO-B and THK5117” value with MAO-B was “around 300 nM”.
Consider `[3H]CNc1ccc(-c2ccc3cc(OCC(O)CF)ccc3n2)cc1` (centres unmarked) [^3H-THK5117, 1-Fluoro-3-((2-(4-([^3H]methylamino)phenyl)quinolin-6-yl)oxy)propan-2-ol], for which the Total Binding with tau [4] (AD1, Frontal cortex) was 312 fmol/mg; in the test with tau [4] (AD1, Temporal cortex), 261 fmol/mg. For the same molecule, the “extent of binding compared with ^3H-THK5351” value in the test on tau [5] is given as “more extensive binding of ^3H-THK5117 than of ^3H-THK5351”.
